Key:
[1] = system: L. donovani intracellular amastigotes in B10R cells; test: UCSD L. donovani infection assay (Assay Conditions D); type: cell-based; settings: B10R cells; for L. donovani amastigotes EC75 (B10R cells): footnote d
How it was run: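 Compounds, either single-point at 10 μM or 10-point 2-fold series (3 technical, 2 biological replicates), were incubated 72 h at 37° C. with B10R host cells co-seeded with day-7 stationary L. donovani promastigotes (20:1). DAPI-stained nuclei imaging yielded intracellular parasite EC50 and host-cell CC50.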

[2] = system: L. braziliensis (strain BA788) in J774 cells; test: J774 luciferase infection assay (Assay Conditions E); type: cell-based, Leishmania braziliensis; settings: for L. braziliensis amastigotes EC75 (J774 cells): footnote e
Procedure: Assay Conditions E: J774 cells (ATCC J774A.1 were grown in DMEM supplemented with 10% Fetal Bovine Serum (FBS) and 1% Penicillin-Streptomycin at 37° C. in 5% CO2. Leishmania parasites expressing luciferase and GFP were grown as described in Front. Cell. Infect. Microbiol (2019) 9:237. J774 cells were seeded in microwell plates at 3×10^5 cells/mL density. Cells were washed with PBS and incubated with complete DMEM medium containing stationary phase Leishmania promastigotes (L. major: strain Friedlin; L. braziliensis, strain BA788) at a 1:10 parasite-cell ratio for 24 h. Cells were washed with PBS. Cells and compounds were incubated for 48 h at 37° C. and 5% C02. Compounds were tested in 8-point 2-fold serial dilution in 4 technical replicates, and 2 biological replicates. After 48 h, OneTiterGlo (Promega) (100 μl) was added to each well. Plates were incubated for 15 min and bioluminescence was measured using a plate reader (Molecular Devices). Effective concentration inducing 75% activity (EC75) was calculated using GraphPad Prism Software (version 9.0).

[3] = UCSD infection assay, host cell cytotoxicity (CC50); type: cell-based; settings: mouse, B10R host cells infected with L. donovani; footnote d
Procedure: (§1) Assay Conditions D: B10R cells (CVCL_0155) were seeded at 300 cells/well, and L. donovani WT promastigotes in stationary phase (7th day after passage) were added at 6,000 parasites/well (ratio of 20 parasites/cell). Both cells and parasites were seeded in DMEM High-Glucose medium (Gibco, cat. no. 11995065) containing 5% Fetal Bovine Serum (Sigma-Aldrich, cat. no. F2442) and 1% Penicillin-Streptomycin (Gibco, cat. no. 15140122). Cells and parasites were incubated in the presence of the compounds for 72 h at 37° C. and 5% C02. Plates were then fixed with 4% formaldehyde solution for at least 1 h, then washed with 1×PBS and stained with 5 μg/mL DAPI. Plates were read using an ImageXpress microscope (Molecular Devices) and analyzed by MetaXpress software (Molecular Devices) using a custom module optimized for this assay. […] Compounds were tested in a 10-point 2-fold serial dilution in 3 technical replicates, and 2 biological replicates. After 72 h, plates were fixed and stained with DAPI as described above. Images were acquired on an ImageXpress microscope, and analyzed using the MetaXpress custom module.
as §1, with “Compounds were obtained as 0.2 μmoles of dried film for primary single point screening. Each compound was diluted in DMSO to 10 μM final testing concentration. These compounds were tested in 2 biological replicates. The compounds were pre-spotted onto 384-well assay plates in single concentration.” for “Assay Conditions D:”, “CO2.” for “C02.”, “module. The DRCs were plotted, half-effective concentration (EC50) and half-cytotoxic concentration (CC50) were calculated using GraphPad Prism Software, version 6.05 (GraphPad Software, San Diego, CA).” for “module.”

[4] = system: L. donovani intracellular amastigotes infecting THP-1 cells; test: High content intracellular amastigote assay in THP-1 cells (Assay Conditions B; CDIPD screen); type: cell-based, Leishmania donovani; settings: 10 μM; THP-1 cells; footnote b
Procedure: (§2) Assay Conditions B: THP-1 cells (human acute monocytic leukemia cell line—ATCC TIB202) were grown in RPMI supplemented with 10% Fetal Bovine Serum (FBS) and 50 μM 2-mercaptoethanol at 37° C. in 5% CO2. THP-1 were seeded in microwell plates at 5×10^5 cells/mL density and treated with 0.1 μM phorbol myristate acetate (PMA, Sigma) at 37° C. for 48 h for differentiation into adherent, non-dividing macrophages. After activation by PMA, cells were washed and incubated with complete RPMI medium containing stationary phase Leishmania promastigotes (L. major: strain LV39; L. donovani, strain 1S/Cl2D) at a 1:15 parasite-cell ratio. Compounds were added and incubated at 37° C. for 72 h. Cells were then washed with phosphate-buffered saline (PBS), fixed for 30 minutes with 4% formaldehyde, rinsed again with PBS, stained for 2 h with 4′,6′-diamidino-2-phenylindole (DAPI 300 nM) and finally washed with PBS. In a collaborative effort to identify new antileishmanial chemotypes with minimal host cell cytotoxicity, compounds from the Boston University Center for Molecular Discovery (BUCMD) screening collection were assessed in a phenotypic, high content primary screen at the University of California's Center for Discovery and Innovation in Parasitic Diseases (CDIPD) for the ability to inhibit growth of L. donovani intracellular amastigotes infecting THP-1 cells. […] Dose-response testing in L. donovani (both intracellular amastigotes and promastigotes) confirmed concentration-dependent growth inhibition of both morphologies of the parasite at low micromolar EC50 values for both compounds (Table 1).

THP-1 cells = test: Host THP-1 cell cytotoxicity in the CDIPD high content screen; type: cell-based, human; settings: Homo sapiens, THP-1; 10 μM; footnote b; read-out: THP-1 host cell % growth inhibition at 10 μM
Procedure: as §2

[5] = system: L. donovani intracellular amastigotes infecting THP-1 macrophages; test: GSK intramacrophage L. donovani assay (LD AMMAC, inMac; Assay Conditions C); type: cell-based; settings: Leishmania donovani; THP-1 cells; values marked c; read-out: L. donovani amastigotes EC50 (THP-1 cells)
How it was run: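 EC50 values come from counting amastigotes per infected THP-1 macrophage (AMMAC). Parallel read-outs give percentage of infected cells per well (INFCELL) and a macrophage-number toxicity EC50 (MAC).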

[6] = GSK inMac assay, host cell toxicity readout (LD MAC); type: cell-based, human; settings: human; footnote c; read-out: THP-1 Host Cell CC50
How it was run: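 MAC EC50 reflects THP-1 host cell counts, measured within GSK's inMac L. donovani infection assay that also scores intracellular amastigotes and infected-cell percentage.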

| SMILES | L. donovani amastigotes EC75 (μM, B10R cells) [1] | L. braziliensis amastigotes EC75 (μM, J774 cells) [2] | L. donovani amastigotes % GI at 10 μM (THP-1 cells) [4] | inhibition at 10 µM (THP-1 cells) | other results |
| --- | --- | --- | --- | --- | --- |
| COc1ccc(N2C(=O)c3[nH]nc(CC(C)C)c3C2c2ccccc2F)cn1 (centres unmarked) [BUCMD00691] | 4.9 µM | >10 µM | – | – | – |
| COc1ccc(N2C(=O)c3[nH]nc(CC(C)C)c3C2c2ccc(F)c(F)c2)cn1 (centres unmarked) [BUCMD00692] | >10 µM | >10 µM | – | – | – |
| CC(C)Cc1n[nH]c2c1C(c1ccc(F)cc1Cl)N(c1cncc(F)c1)C2=O (centres unmarked) [BUCMD00694] | – | – | – | – | L. donovani amastigotes EC75 (B10R cells) [1]: 0.4 µM; L. braziliensis amastigotes EC75 (J774 cells) [2]: >10 µM; CC50 at 72 h [3]: 10 µM |
| COc1ccc(N2C(=O)c3[nH]nc(C)c3C2c2ccc(F)cc2)cc1 (centres unmarked) [CMLD007221] | – | – | 0.0% | < 10% | – |
| CC(C)Cc1n[nH]c2c1C(c1ccc(F)cc1)N(c1ccccc1)C2=O (centres unmarked) [CMLD007425] | – | – | 15.0% | 13% | – |
| COc1ccc(N2C(=O)c3[nH]nc(-c4ccccc4)c3C2c2ccc(C)cc2)cc1 (centres unmarked) [CMLD007262] | – | – | 0.0% | < 10% | – |
| COc1ccc(N2C(=O)c3[nH]nc(CC(C)C)c3C2c2ccc(Cl)cc2F)cn1 (centres unmarked) [BUCMD00685] | 1.7 µM | >10 µM | – | – | – |
| COc1ccc(N2C(=O)c3[nH]nc(CC(C)C)c3C2c2ccccc2C(F)(F)F)cn1 (centres unmarked) [BUCMD00689] | >10 µM | >10 µM | – | – | – |
| COc1ccc(N2C(=O)c3[nH]nc(C)c3C2c2ccccc2)cc1 (centres unmarked) [CMLD007219] | – | – | 0.0% | < 10% | – |
| COc1ccc(N2C(=O)c3[nH]nc(CC(C)C)c3C2c2ccccc2C)cn1 (centres unmarked) [BUCMD00687] | >10 µM | >10 µM | – | – | – |
| CC(C)Cc1n[nH]c2c1C(c1ccc(Br)cc1F)N(c1ccc(F)nc1)C2=O (centres unmarked) [BUCMD00649] | >10 µM | >10 µM | – | – | – |
| COc1ccc(N2C(=O)c3[nH]nc(CC(C)C)c3C2c2ccc(F)cn2)cc1 (centres unmarked) [CMLD011100] | – | – | – | – | EC50 [5]: 10 µM; L. donovani amastigotes EC75 (B10R cells) [1]: 4.4 µM; L. braziliensis amastigotes EC75 (J774 cells) [2]: >10 µM; CC50 [6]: > 50 µM |
| COc1ccccc1C1c2c(CC(C)C)n[nH]c2C(=O)N1c1ccc(N(C)C)cc1 (centres unmarked) [CMLD011552] | – | – | – | – | L. donovani amastigotes EC75 (B10R cells) [1]: 0.1 µM; EC50 ([1]; Leishmania donovani, values marked d, read-out: L. donovani amastigotes EC50 (B10R cells)): 0.1 µM; L. braziliensis amastigotes EC75 (J774 cells) [2]: >10 µM; CC50 at 72 h [3]: 3.98 µM; CC50 [6]: 3.5 µM |

— US20230381142A1, “ANTILEISHMANIAL COMPOUNDS, COMPOSITIONS AND USE THEREOF” (TRUSTEES OF BOSTON UNIVERSITY, priority 2022, published 2023)
